Common to all, as to assay type: functional, cell-based
Experiment [1] has as its system A549. In words: Cytotoxicity against human A549 cells assessed as cell growth inhibition after 48 hrs by SRB assay. Conditions: for IC50: A549, 48 h. Background: The SRB assay estimates cell density from bound dye.
Experiment [2] deals with NCI-H322. The experiment in a line: Cytotoxicity against human NCI-H322 cells assessed as cell growth inhibition at 40 uM after 48 hrs by SRB assay.
The nature of experiment [3]: (§1) Cytotoxicity against human NCI-H322 cells assessed as cell growth inhibition after 48 hrs by SRB assay. Conditions: NCI-H322, 48 h.
The subject of experiment [4] is A549. In words: Cytotoxicity against human A549 cells assessed as cell growth inhibition at 40 uM after 48 hrs by SRB assay.
In experiment [5] the test system is NCI-H322. In words: Cytotoxicity against human NCI-H322 cells assessed as reduction of total cell quantity at 40 uM after 48 hrs by inverted microscopic analysis.
In experiment [6] the test system is NCI-H322. In words: Induction necrosis in human NCI-H322 cells at 40 uM after 48 hrs by LDH release assay. (LDH in the medium is a marker of cell lysis.)
The test system of experiment [7] is NCI-H322. The experiment is described as §1.
For experiment [8], the system named is A549. In words: Cytotoxicity against human A549 cells assessed as reduction of total cell quantity at 40 uM after 48 hrs by inverted microscopic analysis.
Experiment [9] has as its system NCI-H322. In words: Induction morphological changes in human NCI-H322 cells at 40 uM after 48 hrs by inverted microscopic analysis.
Experiment [10] concerns A549. The experiment in a line: Induction necrosis in human A549 cells at 40 uM after 48 hrs by LDH release assay.
Experiment [11] relates to A549. In words: Induction morphological changes in human A549 cells at 40 uM after 48 hrs by inverted microscopic analysis.

Calls of active or inactive are those of the source. The rule behind the calls is not given here.

One may read the IC50 as the point on the concentration scale where inhibition reaches its midpoint.

In the case of `COc1ccc(-c2cn3nc(-c4ccccc4)cc3c(=O)n2CCOCCO)cc1`, the figures for the IC50 in experiment [1] and in experiment [3] were 59 µM and 74.7 µM, respectively. The “growth inhibition (GI)” value in experiment [2] and in [4] was “Active” each time.
In the case of `COc1ccc(-c2cc3c(=O)n(CCOCCO)c(-c4ccc(OC)cc4)cn3n2)cc1`, the result in experiment [5], in experiment [8], in [9] and in experiment [11] was Active. For the same molecule, the outcome in [6] and in experiment [10] was inactive. Moreover, the “growth inhibition (GI)” value in experiment [1] and in experiment [7] was “Dose-dependent effect” throughout. In addition, the half-maximal inhibitory concentration (IC50) in experiment [1] is 34.7 µM; in experiment [3], 50.6 µM. Moreover, the “growth inhibition (GI)” value in [2] and in experiment [4] was “Active” throughout.
For `O=c1c2cc(-c3ccc(Cl)cc3)nn2cc(-c2ccccc2)n1CCOCCO`, the result in experiment [5], in [8], in experiment [9] and in experiment [11] was Active. Besides, the result in experiment [6] and in experiment [10] was inactive. The “growth inhibition (GI)” value in experiment [1] and in [7] was “Dose-dependent effect” each time. Further, the IC50 stood at 24.2 µM in experiment [1] and 29.4 µM in experiment [3]. The “growth inhibition (GI)” value in [2] and in [4] was “Active” throughout.
Take `O=c1c2cc(-c3ccccc3)nn2cc(-c2ccccc2)n1CCOCCO`: the result in experiment [5], in [8], in experiment [9] and in experiment [11] was Active. The outcome in experiment [6] and in experiment [10] was inactive. The “growth inhibition (GI)” value in experiment [1] and in experiment [7] was “Dose-dependent effect” each time. Also, the IC50 in [1] was 41.1 µM; in experiment [3], 45.6 µM. For the same molecule, the “growth inhibition (GI)” value in experiment [2] and in [4] was “Active” in each case.
Take `COc1ccc(-c2cc3c(=O)n(CCOCCO)c(-c4ccc(Cl)cc4)cn3n2)cc1`: the figures for the IC50 in [1] and in experiment [3] were 49.7 µM and 76.9 µM, respectively. Moreover, the “growth inhibition (GI)” value in experiment [2] and in experiment [4] was “Active” in each case.
As for `O=c1c2cc(-c3ccccc3)nn2cc(-c2ccc(Cl)cc2)n1CCOCCO`, the IC50 was 62.6 µM in experiment [1] and 91 µM in experiment [3]. The “growth inhibition (GI)” value in experiment [2] and in experiment [4] was “Active” in each case.
On to `COc1ccc(-c2cc3c(=O)n(CCOCCO)c(-c4ccccc4)cn3n2)cc1`, for which the IC50 in experiment [1] was determined as 50.3 µM; in experiment [3] it was 68.7 µM. Further, the “growth inhibition (GI)” value in experiment [2] and in [4] was “Active” each time.

The record behind these values is ChEMBL document CHEMBL1795277, “Synthesis of novel pyrazolo[1,5-a]pyrazin-4(5H)-one derivatives and their inhibition against growth of A549 and H322 lung cancer cells” (Bioorg Med Chem Lett, 2011).
